The values that follow are results of earlier work, collected in patent publication US20080221127A1, “PPAR ACTIVE COMPOUNDS” (Plexxikon Inc, priority 2007, published 2008).

One series addresses T1, PPARδ (Homo sapiens, UniProt Q03181).
T1 sequence (Q03181 1-441): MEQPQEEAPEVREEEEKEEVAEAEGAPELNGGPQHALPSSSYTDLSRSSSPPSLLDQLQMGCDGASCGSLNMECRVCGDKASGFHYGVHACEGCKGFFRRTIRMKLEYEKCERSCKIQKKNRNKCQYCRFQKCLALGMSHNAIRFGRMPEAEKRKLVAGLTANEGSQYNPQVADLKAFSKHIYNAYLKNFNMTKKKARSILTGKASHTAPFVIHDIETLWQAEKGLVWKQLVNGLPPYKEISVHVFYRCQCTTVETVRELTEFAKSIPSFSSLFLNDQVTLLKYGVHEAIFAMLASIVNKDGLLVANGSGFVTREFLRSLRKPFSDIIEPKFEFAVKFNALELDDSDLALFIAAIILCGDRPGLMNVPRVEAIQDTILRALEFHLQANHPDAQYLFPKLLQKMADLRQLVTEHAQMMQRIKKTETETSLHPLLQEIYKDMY

In a further series the target is T2, murine PPARα (Mus musculus, UniProt P23204).
T2 sequence (P23204 1-468): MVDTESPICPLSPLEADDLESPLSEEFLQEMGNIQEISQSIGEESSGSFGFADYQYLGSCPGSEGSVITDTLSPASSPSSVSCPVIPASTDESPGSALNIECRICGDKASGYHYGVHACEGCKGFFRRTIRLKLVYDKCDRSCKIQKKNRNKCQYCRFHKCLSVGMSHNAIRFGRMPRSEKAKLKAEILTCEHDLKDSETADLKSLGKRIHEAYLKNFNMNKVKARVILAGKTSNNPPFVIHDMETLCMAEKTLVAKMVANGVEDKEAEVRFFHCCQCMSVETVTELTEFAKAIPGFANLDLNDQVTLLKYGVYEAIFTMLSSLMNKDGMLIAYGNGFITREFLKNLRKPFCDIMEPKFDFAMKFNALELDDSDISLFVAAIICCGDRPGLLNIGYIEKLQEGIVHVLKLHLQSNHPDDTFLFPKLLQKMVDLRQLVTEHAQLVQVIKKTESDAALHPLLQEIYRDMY

`CCCc1c(OCCCOc2ccc(OCC(=O)O)cc2)ccc(C(C)=O)c1O` [L-165041]: the “agonist selectivity for PPARδ over PPARγ” value on PPARδ is “approximately 30 fold”. The “activity on murine PPARα” value on murine PPARα was “inactive”.
